Values quoted from earlier work, collected in patent US20120128730A1, “COMPOSITIONS AND METHODS FOR ONCE-DAILY TREATMENT OF OBSESSIVE COMPULSIVE DISORDER WITH ONDANSETRON” (priority 2010, published 2012).

System: mesenteric bed or the nerves in the heart
Conditions: animal studies

In the case of `Cc1nccn1CC1CCc2c(c3ccccc3n2C)C1=O` (stereo not shown) [ondansetron], the “effect on the mesenteric bed or the nerves in the heart” value is listed as “did not appear to have effect”.
